Data as given in patent publication US20220017516A1, “LOX INHIBITORS” (THE INSTITUTE OF CANCER RESEARCH: ROYAL CANCER HOSPITAL, priority 2018, published 2022).
Where a chain is given by its changes, count along the chain named. Like-named read-outs stand apart in the source and are kept apart here.

Legend:
LOX [1] = target: T1, LOX (Mus musculus, UniProt P28301); assay: LOX activity in cysts assay (roGFP2 LOX biosensor in MDCK cysts); type: cell-based; details: LOX; for inhibition at 2.5 µM: read-out: Cyst LOX (% inhibition) @ 2.5 uM
T1 construct: Full length LOX cDNA was then PCR cloned into pEGFP-N1 (Clonetech), or biosensor vector proGFP2—N1; expressed in transfected cells; host or cells: MDCK cells grown as cysts on Matrigel
T1 sequence (P28301 163-411): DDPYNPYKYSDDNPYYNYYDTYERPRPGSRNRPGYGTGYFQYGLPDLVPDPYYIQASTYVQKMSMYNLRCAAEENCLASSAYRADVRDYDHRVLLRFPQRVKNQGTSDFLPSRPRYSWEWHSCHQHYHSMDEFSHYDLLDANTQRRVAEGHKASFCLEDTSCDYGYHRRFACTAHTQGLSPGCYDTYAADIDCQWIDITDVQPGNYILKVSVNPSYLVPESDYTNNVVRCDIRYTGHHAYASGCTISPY
Method: All cell lines used in this study were purchased from American Type Culture Collection (ATCC). Mycoplasma contamination was routinely monitored by PCR. Cells used were not found to be Mycoplasma positive. MDCK cell lines were cultured in Dulbecco's Modified Eagle Medium (DMEM) supplemented with 10% fetal bovine serum (FBS) and 1% Penicillin Streptomycin solution (Pen Strep). For GFP constructs transfection in MDCK cells, lipofectamine 3000 was used according to manufactures protocols. Cells were either selected with G418 (Life Technologies) at 5 mg/ml. All cell culture reagents were purchased from Life Technologies.
To produce MDCK cysts, cells were cultured on Matrigel (Corning) with 2% Matrigel supplemented in DMEM with 10% FBS. Cysts were allowed to form for 10 days before subsequent studies.
Mouse LOX cDNA was purchased from OriGene. Full length LOX cDNA was then PCR cloned into pEGFP-N1 (Clonetech), or biosensor vector proGFP2—N1 (Hanson, 2004) using the following primers, […] (forward primer) and […] (reverse primer). For the insertion into pEGFP-N1 or proGFP2—N1, Nhel and Xhol restriction sites were added to forward and reverse primers accordingly. Mutant LOX constructs were made using QuickChange II site-directed mutagenesis kit (Agilent Technologies) following manufacture's protocol using LOX-GFP as template. To generate, roGFP2 versions of LOX mutant constructs, LOX mutant cDNA was transferred from pEGFP-N1 to proGFP2—N1 using Nhel and Xhol.
All photomicrographs were taken with a Leica TCS SP8 X confocal system. For LOX biosensor imaging, live MDCK cysts were used. The oxidised biosensor was excited using a 405 nm laser, while the reduced biosensor was excited with a 488 nm laser. Emission of the biosensor was recorded at 500 nm-530 nm range using sequential scans. Ratio images were generated following a published protocol {Kardash, 2011 #376}. Note, while the published protocol generates YFP/CFP ratio images, we used it to generate Oxidised/Reduced (roGFP2 ratio) ratio images. The roGFP2 ratio at the basal surface of MDCK cysts was used to indicate LOX inhibition. LOX inhibitors were added 30 min prior to imaging.
For clarity, readout for DMSO treated cysts represents 0% inhibition (no inhibition) and readout for BAPN at 1 mM is used as 100% inhibition (full inhibition).

LOX [2] = target: T2, LOX (Sus scrofa, UniProt P45845); assay: LOX isoform activity assay (ROS Glo), LOX; type: biochemical, pig; details: 1 h incubation with enzyme
T2 construct: LOX was extracted from pig skin by previously described methods; from tissue; host or cells: pig skin
T2 sequence (P45845 1-249): T1 sequence (P28301 163-411) with D20X, T21X, Y22X, N31Y, S80T, N142S, A188N, Q202K, T224S, D231E
Method: (§1) LOX was extracted from pig skin by previously described methods (Shackleton and Hulmes, 1990). LOXL2 and LOXL3 were obtained from R&D Systems/Bio-techne. The Promega ROS Glo assay kit (G8821) was used to assess enzyme activity. Overall, test compound was added to either 384 well assay plates (Greiner) using a Labcyte Echo™ Acoustic Handler or to 96 well plates for a final assay concentration of 100, 30, 10, 3, 1, 0.3, 0.1, 0.03, 0.01 and 0.003 μM final assay concentration. Enzymes were diluted according to specific pre-determined activity in assay buffer (100 mM CHES, pH 9, 0.05% (w/v) pluronic F-127, 0.5% (w/v) BSA, 1 mM MgCl2, 1 M urea, 100 mM NaCl) and added to the plate. For LOXL2, the mixture was incubated for 20 min, 1 h or 20 h; for LOX and LOXL3, incubation time was 1 h. Cadaverine and H2O2 substrate were then added to each well (final assay concentration 19.56 mM and 25 μM respectively) and the plates were incubated for 1.5 h (for LOX) or 1 h (for LOXL2 and LOXL3) at room temperature. Finally, luciferin detection reagent was added and plates were incubated for 20 min at room temperature, protected from light. Luminescence was measured using a BMG LABTECH PHERAstar FS reader and resulting IC50 values were calculated using GraphPad Prism software.

LOXL2 = target: T3, LOXL2 (Homo sapiens, UniProt Q9Y4K0); assay: LOX isoform activity assay (ROS Glo), LOXL2; type: biochemical
T3 construct: purchased R&D Systems/Bio-techne
T3 sequence (Q9Y4K0 26-774): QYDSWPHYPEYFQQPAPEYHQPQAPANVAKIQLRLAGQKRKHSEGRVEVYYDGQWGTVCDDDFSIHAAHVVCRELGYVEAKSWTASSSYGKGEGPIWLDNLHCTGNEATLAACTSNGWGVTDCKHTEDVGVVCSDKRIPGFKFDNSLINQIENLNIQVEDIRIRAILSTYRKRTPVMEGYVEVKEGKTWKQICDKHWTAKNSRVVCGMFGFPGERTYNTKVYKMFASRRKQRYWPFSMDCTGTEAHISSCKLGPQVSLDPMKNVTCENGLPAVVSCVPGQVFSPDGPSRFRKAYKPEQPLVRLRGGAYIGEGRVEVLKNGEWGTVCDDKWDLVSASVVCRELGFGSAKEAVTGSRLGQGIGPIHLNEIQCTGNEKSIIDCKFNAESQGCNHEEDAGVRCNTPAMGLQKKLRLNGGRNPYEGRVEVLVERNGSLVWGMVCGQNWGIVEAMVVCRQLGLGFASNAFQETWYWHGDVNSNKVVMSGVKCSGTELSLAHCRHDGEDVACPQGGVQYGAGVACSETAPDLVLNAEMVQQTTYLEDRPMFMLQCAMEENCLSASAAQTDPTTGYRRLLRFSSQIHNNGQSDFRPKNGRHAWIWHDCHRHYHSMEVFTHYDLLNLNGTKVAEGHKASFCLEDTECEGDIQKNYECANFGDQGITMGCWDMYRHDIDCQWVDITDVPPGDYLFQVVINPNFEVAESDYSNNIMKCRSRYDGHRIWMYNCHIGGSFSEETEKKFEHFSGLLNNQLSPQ
Method: as §1
In another setting, LOXL2 enzyme was diluted according to specific pre-determined activity in assay buffer (100 mM CHES, pH 9, 0.05% (w/v) pluronic F-127, 0.5% (w/v) BSA, 1 mM MgCl2, 1 M urea, 100 mM NaCl). Overall, 0.5 μl test compound was added to 40 μl assay buffer+LOXL2 at 100, 30, 10, 3, 1, 0.3, 0.1, 0.03, 0.01 and 0.003 μM (final concentration) in a 96-well white polystyrene, flat bottom plates (Fisher) and incubated for the indicated time at room temperature. 10 μl of assay buffer containing 97.8 mM cadaverine and 125 μM H2O2 substrate (final assay concentration 19.56 mM and 25 μM respectively) were added to each well and plates were incubated for 1 h at room temperature. Finally, 50 μl per well luciferin detection reagent was added and plates were incubated for 20 min at room temperature, protected from light. Luminescence was measured with an integration time of 500 ms per well using a SpectaMax M5 plate reader and resulting IC50 values were calculated using GraphPad Prism software.

[3] = target: T4, monoamine oxidase A (MAO-A) (Homo sapiens, UniProt P21397); assay: Amine oxidase activity assay (MAO-Glo), MAO-A; type: biochemical
T4 construct: purchased Promega V1452
T4 sequence (P21397 1-527): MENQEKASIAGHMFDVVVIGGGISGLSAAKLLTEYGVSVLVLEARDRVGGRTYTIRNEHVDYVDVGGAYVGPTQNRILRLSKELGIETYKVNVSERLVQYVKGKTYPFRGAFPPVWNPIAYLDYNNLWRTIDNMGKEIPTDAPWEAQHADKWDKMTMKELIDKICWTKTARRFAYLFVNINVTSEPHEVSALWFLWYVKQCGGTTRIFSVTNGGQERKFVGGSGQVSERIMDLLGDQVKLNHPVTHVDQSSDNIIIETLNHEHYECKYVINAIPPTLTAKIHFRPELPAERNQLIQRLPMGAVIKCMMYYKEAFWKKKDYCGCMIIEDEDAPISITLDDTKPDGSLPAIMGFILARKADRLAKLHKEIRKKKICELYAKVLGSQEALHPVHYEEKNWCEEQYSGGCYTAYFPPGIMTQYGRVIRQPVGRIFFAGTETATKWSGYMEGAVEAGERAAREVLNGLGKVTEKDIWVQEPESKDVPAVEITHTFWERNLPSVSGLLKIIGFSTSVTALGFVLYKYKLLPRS
Method: (§2) The Promega MAO-Glo assay kit (V1402) was used to assess monoamine oxidase A (MAO-A) and monoamine oxidase B (MAO-B) activity. MAO substrate was prepared at 80 μM with the specific MAO-A/B reaction buffer. Overall, 0.5 μl test compound was added to 25 μl MAO substrate at 100, 30, 10, 3, 1, 0.3, 0.1, 0.03, 0.01 and 0.003 μM (final concentration) in a 96-well white, flat bottom plate. Overall, 25 μl of 1:520 dilution of MAO-A enzyme (Promega, V1452) or 25 μl of 1:52 dilution of MAO-B enzyme (Sigma, M7441) in specific MAO-A/B reaction buffer was added to each well (enzyme prepared at 2×final concentration) and plates were incubated for 1 h at room temperature. Finally, 50 μl per well luciferin detection reagent was added and plates were incubated for 20 min at room temperature, protected from light. Luminescence was measured with an integration time of 500 ms per well using a SpectaMax M5 plate reader and resulting IC50 values were calculated using GraphPad Prism software.
(§3) In another setting, the DAO and MAO assays were performed in 384-well plates (Greiner) and test compound was added using a Labcyte Echo™ Acoustic Handler for the same final concentrations as in the 96-well setting. Luminescence was measured with BMG LABTECH PHERAstar FS plate reader.

[4] = target: T5, monoamine oxidase B (MAO-B) (Homo sapiens, UniProt P27338); assay: Amine oxidase activity assay (MAO-Glo), MAO-B; type: biochemical
T5 construct: purchased Sigma M7441
T5 sequence (P27338 1-520): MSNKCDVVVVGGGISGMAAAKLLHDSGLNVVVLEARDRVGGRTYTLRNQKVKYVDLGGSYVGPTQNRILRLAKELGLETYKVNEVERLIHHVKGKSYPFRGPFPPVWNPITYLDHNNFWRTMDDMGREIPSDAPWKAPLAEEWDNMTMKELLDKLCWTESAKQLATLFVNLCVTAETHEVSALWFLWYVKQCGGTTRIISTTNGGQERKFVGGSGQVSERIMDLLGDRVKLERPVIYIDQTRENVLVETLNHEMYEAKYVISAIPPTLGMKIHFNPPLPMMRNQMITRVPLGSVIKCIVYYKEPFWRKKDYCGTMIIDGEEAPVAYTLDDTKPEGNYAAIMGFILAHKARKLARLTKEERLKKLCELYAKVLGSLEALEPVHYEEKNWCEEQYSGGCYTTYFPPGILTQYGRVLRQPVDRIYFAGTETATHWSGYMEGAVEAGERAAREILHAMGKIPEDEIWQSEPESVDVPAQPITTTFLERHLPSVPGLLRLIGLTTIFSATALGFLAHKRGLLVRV
Method: as §2, §3

[5] = 20 hr incubation with enzyme; read-out: LOXL2 IC50 c) 20 hr

CCOc1ccc(N2C[C@H]3CN(C(=O)C(F)S(=O)(=O)CCN)C[C@@H]2C(C)(C)C3)cc1 (stereo partly drawn) [Example 15, 2-((2-aminoethyl)sulfonyl)-1-((1 S,5S)-6-(4-ethoxyphenyl)-9,9-dimethyl-3,6-diazabicyclo[3.2.2]nonan-3-yl)-2-fluoroethan-1-one]
inhibition at 2.5 µM (LOX [1]): 78%
IC50 (LOX [2]): 2.2 µM
IC50 (LOXL2; [5]): 0.12 µM

CCOc1ccc(N2C[C@H]3CN(C(=O)C(CC(C)C)S(=O)(=O)CCN)C[C@@H]2C(C)(C)C3)cc1 (stereo partly drawn) [Example 40, 2-((2-aminoethyl)sulfonyl)-1-((1S,5S)-6-(4-ethoxyphenyl)-9,9-dimethyl-3,6-diazabicyclo[3.2.2]nonan-3-yl)-4-methylpentan-1-one]
inhibition at 10 µM (LOX [1]; 10 uM, DMSO = 0%, BAPN 1 mM = 100% inhibition, inhibitor added 30 min prior to imaging, read-out: Cyst LOX @ 10 uM (% inhibition)): 79%
IC50 (LOXL2; 1 hr incubation with enzyme; read-out: LOXL2 IC50 b) 1 hr): 1.1 µM

CCOc1ccc(N2C[C@H]3CN(C(=O)c4cccc(S(=O)(=O)CCN)c4)C[C@@H]2C(C)(C)C3)cc1 [Example 32, (3-((2-aminoethyl)sulfonyl)phenyl)((1S,5S)-6-(4-ethoxyphenyl)-9,9-dimethyl-3,6-diazabicyclo[3.2.2]nonan-3-yl)methanone]
IC50 (LOX [2]): 23 µM
IC50 (LOXL2; [5]): 3 µM
IC50 [3]: > 100 µM
IC50 [4]: > 100 µM

CCOc1ccc(N2C[C@@H]3C[C@H]2CN3C(=O)C(F)S(=O)(=O)CCN)cc1 (mixture of isomers) [Example 16, 2-((2-aminoethyl)-sulfonyl)-1-((1S,4S)-5-(4-ethoxyphenyl)-2,5-diazabicyclo-[2.2.1]heptan-2-yl)-2-fluoroethan-1-one]
inhibition at 2.5 µM (LOX [1]; 2.5 uM (stated in cell), DMSO = 0%, BAPN 1 mM = 100% inhibition): 73%
IC50 (LOXL2; [5]): 0.14 µM
